In the supplement of paper PMC11208160:
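Further: IS621 bridge recombinase in Escherichia coli cells against a fixed T5 target plasmid.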

Experiment: recombinant UMI read abundance after kanamycin selection (control-corrected) (log10(CPM+1)); higher = more efficient recombination; extreme values may be limits of the assay; sequences stand for … in AGTGCAGAGAAAATCGGCCAGTTTTCTCTGCCTGCAGTCCGCATGCCGTGGGACCCCTTGGGTTCTAACCTGTTGCCTAGATTTATGCAGCGGACTGCCTTTCTCCCAAAGTGATAAACCGG…AGGTTGGTTTCACT; site = the 11-nt donor
Procedure, shortened: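 After plating on IPTG (0.07 mM) plus kanamycin, or unselected, in two replicates, recombinant UMIs were PCR-amplified across the donor–target junction and sequenced. The cells were Escherichia coli co-electroporated with a UMI-tagged donor and donor-binding-loop pair library and a target plasmid with a fixed target and T7-inducible IS621 bridge recombinase. Values are log10(CPM+1), with CPM averaged over replicates and scaled by control-derived factors.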
For “TATGACCCATGGACCGGTTTTCCCGGTAATCCGTATTTGAG (site TATGACCCTCT)”, the “recombinant UMI read abundance (log10)” value was 0.00635.
For “TATGAGCCATGGACCGGTTTTCCCGGTAATCCGTATTTGGA (site TATGAGCCTTC)”, the “recombinant UMI read abundance (log10)” value was 0.00722.
In the case of “TATGCGGCATGGACCGGTTTTCCCGGTAATCCGTATTTGCT (site TATGCGGCTAG)”, the “recombinant UMI read abundance (log10)” value is reported as 0.532.
In the case of “TATGCGGCATGGACCGGTTTTCCCGGTAATCCGTATTTGCT (site TCTGCGGCTAG)”, the “recombinant UMI read abundance (log10)” value is reported as 0.00356.
With “TATGCGGCATGGACCGGTTTTCCCGGTAATCCGTATTTGCT (site TGTGCGGCTAG)” the “recombinant UMI read abundance (log10)” value was 0.029.
With “TATGCGGCATGGACCGGTTTTCCCGGTAATCCGTATTTGCT (site TTTGCGGCTAG)” the “recombinant UMI read abundance (log10)” value was 0.00802.
With “TATGTAACATGGACCGGTTTTCCCGGTAATCCGTATTTGAC (site GTACCGTCTAA)” the “recombinant UMI read abundance (log10)” value was 0.0137.
For “TATGTCCCATGGACCGGTTTTCCCGGTAATCCGTATTTGGA (site TATGTCCCTTC)”, the “recombinant UMI read abundance (log10)” value was 0.00458.
For “TATTCCCCATGGACCGGTTTTCCCGGTAATCCGTATTTGTA (site TATTCCCCTTA)”, the “recombinant UMI read abundance (log10)” value was 0.0102.
For “TATTCCCCATGGACCGGTTTTCCCGGTAATCCGTATTTGTA (site TCTTCCCCTTA)”, the “recombinant UMI read abundance (log10)” value was 0.207.
In the case of “TATTCCCCATGGACCGGTTTTCCCGGTAATCCGTATTTGTA (site TGTTCCCCTTA)”, the “recombinant UMI read abundance (log10)” value is reported as 0.254.
In the case of “TATTCCCCATGGACCGGTTTTCCCGGTAATCCGTATTTGTA (site TTTTCCCCTTA)”, the “recombinant UMI read abundance (log10)” value is reported as 0.0134.
For “TATTCGGCATGGACCGGTTTTCCCGGTAATCCGTATTTGTG (site TATTAGGCTCA)”, the “recombinant UMI read abundance (log10)” value was 0.0202.
For “TATTCGGCATGGACCGGTTTTCCCGGTAATCCGTATTTGTG (site TATTCGGCTCA)”, the “recombinant UMI read abundance (log10)” value was 0.131.
With “TATTCGGCATGGACCGGTTTTCCCGGTAATCCGTATTTGTG (site TATTGGGCTCA)” the “recombinant UMI read abundance (log10)” value was 0.00845.
With “TATTCGGCATGGACCGGTTTTCCCGGTAATCCGTATTTGTG (site TATTTGGCTCA)” the “recombinant UMI read abundance (log10)” value was 0.0132.
For “TATTGCACATGGACCGGTTTTCCCGGTAATCCGTATTTGGT (site TATTGCACTAC)”, the “recombinant UMI read abundance (log10)” value was 0.029.
For “TATTTGGCATGGACCGGTTTTCCCGGTAATCCGTATTTGCG (site TATTTGGCTCA)”, the “recombinant UMI read abundance (log10)” value was 0.0189.
In the case of “TATTTGGCATGGACCGGTTTTCCCGGTAATCCGTATTTGCG (site TATTTGGCTCC)”, the “recombinant UMI read abundance (log10)” value is reported as 0.0115.
For “TATTTGGCATGGACCGGTTTTCCCGGTAATCCGTATTTGCG (site TATTTGGCTCG)”, the “recombinant UMI read abundance (log10)” value was 0.0194.
In the case of “TATTTGGCATGGACCGGTTTTCCCGGTAATCCGTATTTGCG (site TATTTGGCTCT)”, the “recombinant UMI read abundance (log10)” value is reported as 0.0118.
In the case of “TATTTGGCATGGACCGGTTTTCCCGGTAATCCGTATTTGTC (site TATTTGGCTAA)”, the “recombinant UMI read abundance (log10)” value is reported as 0.0189.
With “TATTTGGCATGGACCGGTTTTCCCGGTAATCCGTATTTGTC (site TATTTGGCTCA)” the “recombinant UMI read abundance (log10)” value was 0.00726.
In the case of “TATTTGGCATGGACCGGTTTTCCCGGTAATCCGTATTTGTC (site TATTTGGCTGA)”, the “recombinant UMI read abundance (log10)” value is reported as 0.
For “TATTTGGCATGGACCGGTTTTCCCGGTAATCCGTATTTGTC (site TATTTGGCTTA)”, the “recombinant UMI read abundance (log10)” value was 0.00596.
With “TATTTGGCATGGACCGGTTTTCCCGGTAATCCGTATTTGTG (site AATTTGGCTCA)” the “recombinant UMI read abundance (log10)” value was 0.0279.
With “TATTTGGCATGGACCGGTTTTCCCGGTAATCCGTATTTGTG (site CATTTGGCTCA)” the “recombinant UMI read abundance (log10)” value was 0.0142.
For “TATTTGGCATGGACCGGTTTTCCCGGTAATCCGTATTTGTG (site GATTTGGCTCA)”, the “recombinant UMI read abundance (log10)” value was 0.026.
In the case of “TATTTGGCATGGACCGGTTTTCCCGGTAATCCGTATTTGTG (site TAATTGGCTCA)”, the “recombinant UMI read abundance (log10)” value is reported as 0.0238.
For “TATTTGGCATGGACCGGTTTTCCCGGTAATCCGTATTTGTG (site TACTTGGCTCA)”, the “recombinant UMI read abundance (log10)” value was 0.00946.
With “TATTTGGCATGGACCGGTTTTCCCGGTAATCCGTATTTGTG (site TAGTTGGCTCA)” the “recombinant UMI read abundance (log10)” value was 0.00343.
With “TATTTGGCATGGACCGGTTTTCCCGGTAATCCGTATTTGTG (site TATATGGCTCA)” the “recombinant UMI read abundance (log10)” value was 0.00476.
With “TATTTGGCATGGACCGGTTTTCCCGGTAATCCGTATTTGTG (site TATCTGGCTCA)” the “recombinant UMI read abundance (log10)” value was 0.00736.
In the case of “TATTTGGCATGGACCGGTTTTCCCGGTAATCCGTATTTGTG (site TATGTGGCTCA)”, the “recombinant UMI read abundance (log10)” value is reported as 0.0139.
With “TATTTGGCATGGACCGGTTTTCCCGGTAATCCGTATTTGTG (site TATTAGGCTCA)” the “recombinant UMI read abundance (log10)” value was 0.00968.
For “TATTTGGCATGGACCGGTTTTCCCGGTAATCCGTATTTGTG (site TATTCGGCTCA)”, the “recombinant UMI read abundance (log10)” value was 0.0142.
With “TATTTGGCATGGACCGGTTTTCCCGGTAATCCGTATTTGTG (site TATTGGGCTCA)” the “recombinant UMI read abundance (log10)” value was 0.00686.
